Experimental findings from ChEMBL document CHEMBL1201862, “PubChem BioAssay data set” (2004) are described below.

Holding throughout (assay): DTP human tumour cell line panel, 48 h
For experiment [1], the system named is IGROV-1.
Experiment [2] deals with EKVX.
For experiment [3], the system named is OVCAR-8.
In experiment [4] the test system is HOP-62.
Experiment [5] relates to HCT-116.
For experiment [6], the system named is MCF7.
The subject of experiment [7] is MDA-MB-435.
Experiment [8] concerns HCT-15.
Experiment [9] relates to SN12C.
Experiment [10] deals with BT-549.
The subject of experiment [11] is ACHN.
Experiment [12] deals with SF-295.
Experiment [13] has as its system NCI-H522.
The test system of experiment [14] is SK-MEL-2.
Experiment [15] deals with NCI-H226.
The test system of experiment [16] is KM12.
Experiment [17] concerns SK-MEL-5.
Experiment [18] concerns SK-MEL-28.
Experiment [19] has as its system NCI-H460.

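Assay format: 96-well plates, 48-hour exposure. The concentration for 50% growth inhibition is given as GI50.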 Active and inactive are the calls of the source. Rule as the data show it: active = GI50 up to about 1.1 µM and inactive = higher. Bounds are passed on as bounds.

The GI50 is the concentration at which growth is held to half of that of the control.

`O=C1CCC(CCc2nc3ccccc3[nH]2)(c2ccccc2)C(=O)N1` (configuration not stated): the GI50 was 64 µM (inactive) in experiment [1]; 62.4 µM (inactive) in [2]; > 100 µM (inactive) in experiment [3]; > 100 µM (inactive) in [4]; > 100 µM (inactive) in experiment [5]; > 100 µM (inactive) in experiment [6]. Further, the GI50 in [7] is > 100 µM (inactive); in [8], greater than 100 µM; in experiment [9], > 100 µM (inactive); in [10] it was > 100 µM (inactive); in [11], > 100 µM (inactive); in experiment [12], > 100 µM (inactive). Moreover, the GI50 in experiment [13] is 47.4 µM (inactive); in experiment [14], > 100 µM (inactive); in [15] it was > 100 µM (inactive); in [16], > 100 µM (inactive); in experiment [17], > 100 µM (inactive); in experiment [18], > 100 µM (inactive). In addition, the GI50 in [19] is > 100 µM (inactive).

Turning to `C#C[C@]1(O)CC[C@H]2[C@@H]3CCC4=C/C(=N/OC(=O)c5cccc6c(=O)c7ccccc7[nH]c56)CC[C@@H]4[C@H]3CC[C@@]21C`, the GI50 was 68.4 µM (inactive) in experiment [1]; 71 µM (inactive) in experiment [2]; 42.1 µM (inactive) in [3]; > 100 µM (inactive) in experiment [4]; 48.5 µM (inactive) in experiment [5]; 42.5 µM (inactive) in experiment [6]. The GI50 was 43.1 µM (inactive) in experiment [7]; 36.5 µM in [8]; > 100 µM (inactive) in experiment [9]; 37.2 µM (inactive) in experiment [10]; 66.1 µM (inactive) in experiment [11]; 92 µM (inactive) in [12]. In addition, the GI50 was 18.2 µM (inactive) in experiment [13]; 57.4 µM (inactive) in experiment [14]; 83.6 µM (inactive) in experiment [15]; 34.8 µM (inactive) in experiment [16]; 20.2 µM (inactive) in experiment [17]; 62.4 µM (inactive) in experiment [18]. The GI50 in experiment [19] was 37.2 µM (inactive).

With `O=C(O)c1cc2c(cc1CC(Cc1ccc3c(c1)CCCC3)C(=O)O)CCCC2` (configuration not stated), the GI50 in [1] was > 100 µM (inactive); in experiment [2] it was 56 µM (inactive); in experiment [3], > 100 µM (inactive); in experiment [4] it was > 100 µM (inactive); in experiment [5], > 100 µM (inactive); in experiment [6] it was 38.2 µM (inactive). Also, the GI50 was > 100 µM (inactive) in experiment [7]; 64.4 µM in experiment [8]; > 100 µM (inactive) in [9]; 59.2 µM (inactive) in [10]; 56.5 µM (inactive) in [11]; > 100 µM (inactive) in experiment [12]. Also, the GI50 in [13] is 31.2 µM (inactive); in experiment [14], > 100 µM (inactive); in [15] it was 54.3 µM (inactive); in experiment [16], > 100 µM (inactive); in experiment [17], > 100 µM (inactive); in [18], > 100 µM (inactive). For the same molecule, in [19], the GI50 was > 100 µM (inactive).

For the molecule `COc1cc(OC)c2nc(C)c(CCCl)c(Cl)c2c1`, the GI50 in experiment [1], in experiment [2], in [3], in experiment [4], in experiment [5] and in experiment [6] was > 100 µM (inactive) throughout. Also, the GI50 was > 100 µM (inactive) in [7]; greater than 100 µM in experiment [8]; > 100 µM (inactive) in experiment [9]; > 100 µM (inactive) in experiment [10]; > 100 µM (inactive) in experiment [11]; > 100 µM (inactive) in experiment [12]. Besides, the GI50 in experiment [13] was > 100 µM (inactive); in experiment [14], > 100 µM (inactive); in [15], > 100 µM (inactive); in experiment [16], > 100 µM (inactive); in experiment [17], > 10 µM (inactive); in [18] it was > 100 µM (inactive). The GI50 in experiment [19] is > 100 µM (inactive).

Turning to `COc1cc(C(=O)Nc2c3ccccc3nc3ccccc23)cc(OC)c1OC`, the GI50 is > 100 µM (inactive) in experiment [1]; > 59 µM (inactive) in [2]; > 59.7 µM (inactive) in [3]; > 36.3 µM (inactive) in experiment [4]; > 67.1 µM (inactive) in [5]; > 100 µM (inactive) in [6]. The GI50 in experiment [7] was > 74.5 µM (inactive); in [8], greater than 100 µM; in experiment [9] it was > 100 µM (inactive); in experiment [10], > 100 µM (inactive); in [11], > 50.1 µM (inactive); in [12] it was 35.6 µM (inactive). Besides, the GI50 was 42 µM (inactive) in experiment [13]; > 100 µM (inactive) in experiment [14]; > 100 µM (inactive) in experiment [15]; > 100 µM (inactive) in experiment [16]; > 100 µM (inactive) in [17]; > 100 µM (inactive) in experiment [18]. In addition, the GI50 in [19] is > 70.8 µM (inactive).

As to `O=[N+]([O-])c1cc(/C=N/C23CC4CC(CC(C4)C2)C3)ccc1Cl`, the GI50 in [1] is 23.6 µM (inactive); in experiment [2], 29.9 µM (inactive); in experiment [3], 25.1 µM (inactive); in experiment [4], 4 µM (inactive); in experiment [5], 3.94 µM (inactive); in [6], 9.02 µM (inactive). The GI50 was 16.5 µM (inactive) in experiment [7]; 22.6 µM in [8]; 15.9 µM (inactive) in [9]; 21 µM (inactive) in experiment [10]; 24 µM (inactive) in experiment [11]; 37.9 µM (inactive) in experiment [12]. For the same molecule, the GI50 in experiment [13] was 13.4 µM (inactive); in experiment [14], 20.5 µM (inactive); in [15], 51.1 µM (inactive); in [16] it was 17.1 µM (inactive); in experiment [17] it was 21.5 µM (inactive); in experiment [18] it was 18.1 µM (inactive). Also, the GI50 in experiment [19] is 31.8 µM (inactive).

For the molecule `O=c1cc(-c2ccccc2)oc2c1ccc1nc3ccccc3c(O)c12`, the GI50 in experiment [1] is > 100 µM (inactive); in experiment [2] it was > 100 µM (inactive); in experiment [3], 80.5 µM (inactive); in [4], 88.1 µM (inactive); in [5], 26.4 µM (inactive); in experiment [6], 36.4 µM (inactive). In addition, the GI50 in [7] was > 100 µM (inactive); in [8], 42.3 µM; in experiment [9] it was 66.1 µM (inactive); in experiment [10], 33.5 µM (inactive); in experiment [11], 43.5 µM (inactive); in [12] it was 49.4 µM (inactive). The GI50 was 39.9 µM (inactive) in experiment [13]; > 100 µM (inactive) in [14]; > 100 µM (inactive) in experiment [15]; 16.7 µM (inactive) in [16]; 47.6 µM (inactive) in experiment [17]; > 100 µM (inactive) in experiment [18]. For the same molecule, the GI50 in experiment [19] is 14.7 µM (inactive).

Take `Cn1c(=O)c2[nH]c(C3CC(=O)CC(c4nc5c([nH]4)c(=O)n(C)c(=O)n5C)N3)nc2n(C)c1=O` (configuration not stated): the GI50 in experiment [1] is > 100 µM (inactive); in experiment [2] it was > 100 µM (inactive); in [3], > 100 µM (inactive); in experiment [4], > 100 µM (inactive); in experiment [5] it was > 100 µM (inactive); in [6] it was 71.3 µM (inactive). In addition, the GI50 is > 100 µM (inactive) in experiment [7]; greater than 100 µM in [8]; > 100 µM (inactive) in experiment [9]; > 100 µM (inactive) in [10]; > 100 µM (inactive) in [11]; > 100 µM (inactive) in experiment [12]. Also, the GI50 in experiment [13], in experiment [14], in experiment [15], in [16], in [17] and in experiment [18] was > 100 µM (inactive) in each case. The GI50 in experiment [19] was > 100 µM (inactive).
